Laboratory results: publication PMC3828334, “Tumor Cell Death Mediated by Peptides That Recognize Branched Intermediates of DNA Replication and Repair” (PLoS ONE, 2013)
Like-named read-outs stand apart in the source and are kept apart here. Non-standard residues stand in square brackets, D forms with d. Residues, ends and D or L forms follow the SMILES beside them.

Legend:
HeLa cells = experiment: TUNEL assay, HeLa, with z-VAD-fmk or z-FA-fmk; type: cell-based
Procedure: 600,000 PC3 cells or 500,000 HeLa cells were plated in 60-mm dishes or 6-well plates respectively to allow them to attach overnight at 37°C with 5% CO2. PC3 cells were subsequently treated with appropriate treatments for 24, 36 and 48 h while HeLa cells were treated with 1 µl of either the caspase inhibitor z-VAD-fmk or z-FA-fmk (both from Biovision), containing appropriate treatments, for 24 h. The cells were fixed with 4% paraformaldehyde for 30 min and permeabilized with 0.1% Triton X-100 in 0.1% sodium citrate buffer for 3 mins. Labeled dUTP were added along with the terminal deoxynucleotidyl transferase dUTP nick end labeling (TUNEL) (TUNEL kit from Roche) as described in the kit. Samples were analyzed using a Becton Dickinson FACS Canto flow cytometer as specified above.

PC3 cells [1] = details: for cell survival: MTT
Procedure: 20,000 PC3 cells were plated overnight in 96 well plates (Costar) at a concentration of 200,000 cells/ml. They are treated with the peptides, doxorubicin, docetaxel alone, or in combination for different time period incubation and the cell viability was determined by MTT assay as described. The percentage survival of the cells with different treatments was calculated using DMSO-vehicle control-treated cells as the standard.

LnCAP cells = type: cell-based; details: 48 h
DuPro-1 cells = type: cell-based; details: 48 h
PC3 cells [2] = experiment: HPLC determination of intracellular and extracellular peptide concentration; type: in vitro ADME
Procedure: 500,000 HeLa or 400,000 PC3 cells were plated in each well of the 6-well dishes (Costar) and allowed to attach overnight at 37°C with 5% CO2. The cells were treated with d-wrwycr or d-wrwyrggrywrw for 24 or 48 h respectively. For PC3 cells media along with the dodecamer treatments were collected for a separate run in HPLC. PC3 or HeLa cells were lysed using a lysis buffer containing 0.71% NP40, 71 mM Tris (pH 7.5), 0.71 mM EDTA and 212 mM NaCl on ice for 5–10 mins. The lysates were centrifuged at 13,000 g for 7 mins to clear cellular debris. The samples were analyzed by HPLC (Beckman Coulter System Gold BioEssential 126/168) using a Phenomonex Jupiter 4 micron Proteo 90A C18 hydrophobic column to detect the peptides within the cells. […] The intracellular concentration was calculated by taking into account the area under the peptide peaks, using the integration function of 32 Karat software (Beckman Coulter, Fullerton, California), and comparing them to the standard curve of the peptide. […] The extracellular concentration of wrwyrggrywrw was calculated by running the media similarly in HPLC and comparing them to the standard curve of wrwyrggrywrw.
To investigate whether peptide wrwycr or wrwyrggrywrw accumulated within cells, the concentration of the unlabeled and unmodified peptides was directly determined using an HPLC-based method. […]

Chk2 in PC3 cells = experiment: Phospho-Chk2 by flow cytometry; type: cell-based; details: PC3, 1 µM doxorubicin on its own, 48 h
Procedure: They were subsequently treated with either 50-200 μM […] or 50-100 μM […] or 0.5-1 μM doxorubicin or combination treatment for 0, 12, 24, 36 and 48 h. […] Samples were analyzed using a Becton Dickinson FACS Canto flow cytometer at a forward scatter voltage of 25 V, side-scatter voltage of 400 V, and FITC channel at a voltage of 400 V.

[3] = tested on: Htog1 cells (variant of HeLa cells); experiment: Cytochrome C release / TMRE assay for apoptosis; type: cell-based; details: 150 µM etoposide, 24 h, positive control
Procedure: 200,000 Htog1 cells (variant of HeLa cells, a generous gift from Drs. Terrence Frey and Maria Guo) were seeded on cover slips mounted on 35 mm microwell petri dishes (Mattek Corp, Ashland, MA) with DMEM supplemented with 10% FBS and allowed to attach overnight at 37°C in 5% CO2. The media was replaced with 1 ml of the appropriate treatment and incubated for 24 h. After 23 h of treatment, 50 µM tetramethyl rhodamine ethyl ester perchlorate (TMRE) solution was added to each well (final concentration 50 nM) and incubated for the remaining hour. Cytochrome C release and loss of TMRE staining were determined in Z-series images acquired using a Leica TCS SP2 inverted confocal microscope. GFP was excited using 488 nm wavelength from an Ar/Kr laser attenuated to 33%, and the emitted fluorescence detected at 497–553 nm. TMRE fluorescence was excited using a 543 nm wavelength from an Ar/Kr laser attenuated to 35%, and the emitted fluorescence detected at 555–620 nm. Each cell was analyzed for release of GFP (GFP channel), loss of mitochondrial membrane potential (TMRE loss) or morphological abnormalities associated with apoptosis, and the % cells positive for each hallmark was calculated for the various treatments.

[4] = tested on: GRP78 promoter in HeLa cells; experiment: Luciferase reporter assay for ER stress; type: cell-based; details: positive control
Procedure: HeLa cells were transfected with either either 15 µg of plasmid DJT208, carrying the GRP78 promoter (pGRP78) driving the ER-stress response elements ERSE 1, ERSE 2 and ERSE 3 upstream of the luciferase gene, or 15 µg of the plasmid GL2P, carrying the luciferase gene driven by the SV40 promoter (pSV40). All cells were also co-transfected with 10 µg of the PB1 plasmid, carrying the β-galactosidase reporter transcribed by the SV40 promoter, as a transfection control. [The plasmids were generous gifts from Dr. Peter Belmont from Christopher Glembotski's Lab in SDSU]. After 24 h the cells were treated with increasing concentrations of wrwycr (100, 150 and 200 µM) for 24 h and the luciferase activity was measured using an OptocompII Luminometer. Tunicamycin (TM), a known inducer of ER stress, was used as a positive control for the experiment ER stress was calculated as the fold increase of luciferase gene expression from the GRP78 promoter over that from the SV40 promoter of pGL2P for the different concentrations of the peptide over DMSO, which is the solvent for the peptide, or over the media in the case of TM.

OC[C@@H](O)[C@@H](O)[C@H](O)[C@@H](O)CO [sorbitol]
TUNEL-positive cells (HeLa cells; 400 mM sorbitol with mock inhibitor z-FA-fmk): ~80%
TUNEL-positive cells (HeLa cells; 400 mM sorbitol with z-VAD-fmk inhibitor): < 10%

CC(=O)O[C@@]12CO[C@@H]1C[C@H](O)[C@@]1(C)C(=O)[C@H](O)C3=C(C)[C@@H](OC(=O)[C@H](O)[C@@H](NC(=O)OC(C)(C)C)c4ccccc4)C[C@@](O)([C@@H](OC(=O)c4ccccc4)[C@H]21)C3(C)C [docetaxel]
cell survival (PC3 cells [1]; PC3, 10 nM docetaxel, 48 h): 90%
cell survival (PC3 cells [1]; PC3, 50 nM docetaxel, 48 h): 80%

NC(=O)NO [hydroxyurea]
TUNEL-positive cells (HeLa cells; 10 mM hydroxyurea alone): < 2%

N=C(N)NCCC[C@@H](NC(=O)CNC(=O)CNC(=O)[C@@H](CCCNC(=N)N)NC(=O)[C@@H](Cc1ccc(O)cc1)NC(=O)[C@@H](Cc1c[nH]c2ccccc12)NC(=O)[C@@H](CCCNC(=N)N)NC(=O)[C@H](N)Cc1c[nH]c2ccccc12)C(=O)N[C@H](Cc1ccc(O)cc1)C(=O)N[C@H](Cc1c[nH]c2ccccc12)C(=O)N[C@H](CCCNC(=N)N)C(=O)N[C@H](Cc1c[nH]c2ccccc12)C(N)=O [wrwyrggrywrw] (H-[dW][dR][dW][dY][dR]GG[dR][dY][dW][dR][dW]-NH2)
IC50 (LnCAP cells): 25 µM
IC50 (DuPro-1 cells): 25 µM
intracellular concentration (PC3 cells [2]; 25 µM input dose, PC3 cells, 48 h, cell lysate soluble fraction, HPLC C18 against standard curve, cell volume 1.6–2.4 pl): ~1 mM
peptide in the media less than input (PC3 cells [2]; media with 10% FBS after treatment of PC3 cells, several input concentrations, HPLC (Figure 2Aii)): 5–10%
IC50 (PC3 cells [1]; 48 h): 50 µM

COc1cccc2c1C(=O)c1c(O)c3c(c(O)c1C2=O)C[C@@](O)(C(=O)CO)C[C@@H]3O[C@H]1C[C@H](N)[C@H](O)[C@H](C)O1 [doxorubicin]
cellular population with activated Chk2 (Chk2 in PC3 cells): 50%
cell survival (PC3 cells [1]; PC3, 1 µM doxorubicin alone, time course, evident at 36 h (Figure 9B)): 80%
cell survival (PC3 cells [1]; PC3, 2.5 µM doxorubicin alone, 48 h): 73%

COc1cc([C@@H]2c3cc4c(cc3[C@@H](O[C@@H]3O[C@@H]5CO[C@@H](C)O[C@H]5[C@H](O)[C@H]3O)[C@H]3COC(=O)[C@H]23)OCO4)cc(OC)c1O [etoposide, reference compound]
TUNEL-positive cells (HeLa cells; 1.3 µM etoposide alone): < 2%
cytochrome C release and mitochondrial membrane potential [3]: loss of mitochondrial membrane potential and release of cytC

Tunicamycin
pGRP78 Units ([4]; concentration not given): 425255±16205
pSV40 Units ([4]; concentration not given): 4606±362.1
pGRP78/pSV40 ([4]; over the media): 20.0±1.36
pGRP78 Fold change ([4]; over the media): 7.9±0.09
pSV40 Fold change ([4]; over the media): 0.4±0.02
